Data set [1] relates to melan-a cells. The data set can be described thus: Cell survival rate (CCK-8 assay). Particulars: 72 hrs, concentration equal to or lower than 20 μM. The format is cell-based, murine. On the procedure:
Murine melan-a cells (an immortalized, non-tumorigenic murine melanocyte cell line) were obtained from Chinese University of Hong Kong. Cells were cultured in RPMI 1640 medium. Culture medium was supplemented with 10% FBS and 1% penicillin-streptomycin and the cells were incubated at 37° C. in 5% CO2. Melan-a cells were incubated with tetradecanoyl phorbol acetate (TPA) at a concentration of 200 nM. The tested chemical agents (e.g., 6-CEPN and Kojic acid) were individually dissolved as a stock solution at a concentration of 100 mM in 100% dimethyl sulfoxide (DMSO). The stock solution was diluted using culture medium to the desired final concentrations immediately prior to use.
Melan-a cells (10,000 cells/well) were plated in 100 μL 96-well multidishes for at least 24 hours (hrs) prior to use. The cells were treated with serial concentrations of tested chemicals for 72 hrs. After the indicated incubation time, cells were washed three times using PBS and then treated with CCK-8 solution (0.5 mg/mL) for 1.5 hours. Absorbance was measured at 490 nm using Victor X4 Multilabel Plate Reader (PerkinElmer, Mass., USA). Values were expressed as the mean cell viability as a percentage of that of the vehicle DMSO (0.1% final volume)-treated cultures.
(Tetrazolium dyes change colour on reduction, which living cells bring about.)

Data set [2] has as its system melan-a cells. The data set can be described thus: Melanosome autophagy by fluorescence microscopy. Type of data set: cell-based, murine. Particulars: α-MSH, rapamycin 0.5 μM 24 hrs, 6-CEPN 10 μM, 8-CEPQ 5 μM 72 hrs. On the procedure: Melan-a cells (1.5×10^5 cells/well) were seeded on coverslips in 6-well palte. The cells were treated with (1) α-MSH (1 μM) alone for 24 hrs, (2) α-MSH (1 μM) plus rapamycin (0.5 μM) for 24 hrs, (3) α-MSH (1 μM) plus 6-CEPN (10 μM), or (3) α-MSH (1 μM) plus 8-CEPQ (5 μM) for 72 hrs. Culture medium was removed carefully after the cells reached 50%˜70% level of confluence. Cells were stained by microscopy dual detection reagents (autophagy detection kit, Abcam) for 30 mins at 37° C. The stained cells were analyzed by wide-field fluorescence microscopy (60× magnification). Standard FITC filter and DAPI filter were set to image the autophagic signal and the nuclear signal, respectively.

In data set [3] the test system is MelanoDerm (Mel-300-A) epidermal equivalents containing melanocytes. The experiment in a line: Solvable Melanin assay in artificial skin model. The format is cell-based, human. Particulars: 14 days, rapamycin 2.5 μM, 6-CEPN 10 μM, 8-CEPQ 5 μM. As to the method: Epidermal equivalents containing melanocytes (Mel-300-A) were maintained according to the manufacturer's instructions. Mel-300-A tissue was cultured in EPI-100-NMM-113 medium for 14 days. Agents were dissolved in tissue culture medium and changed every other day. The test agents were either (1) rapamycin (2.5 μM), as the positive control in depigmentation, (2) 6-CEPN (10 μM), or (3) 8-CEPQ (5 μM). The concentration of rapamycin used was lower than 6-CEPN and 8-CEPQ, as rapamycin is toxic to cells at higher concentration. Pigmentation of these skin equivalents was compared against treatment of cells with a culture medium only (denoted as “vehicle”). Tissue viability was assessed on day 14 by CCK-8 assay as described in Example 1. On day 14, single tissues were harvested and photographed. The L* parameter was used to evaluate skin lightening or darkening. The lighter the skin, the greater the L* value. ΔL* value was measured by a Chroma Meter CR400 (Konica Minolta) for an evaluation of lightening as a function of time. Three tissues for each treatment were frozen for the Solvable Melanin assay (Bessou-Touya et al., “Chimeric human epidermal reconstructs to study the role of melanocytes and keratinocytes in pigmentation and photoprotection.” Journal of investigative dermatology 111(6):1103-1108 (1998)). Additional tissues were fixed by 10% formanin. […]

Another data set has as its system tyrosinase. The data set can be described thus: Western blotting of tyrosinase protein level in melan-a cells. The note with it: α-MSH, 72 hrs, 20 μM. The format is cell-based, murine. As to the method: Melan-a cells (3×10^5 cells/well) were seeded in 4 mL of culture medium in a 6-well plate for at least 24 hrs prior to use. The cells were treated with α-MSH (1 μM) alone, α-MSH plus plus different concentration of agents for 72 hrs. The cells were washed with cold PBS and then lysed in 100 μL of RIPA buffer containing 1% Nonidet P-40, 0.1% sodium dodecylsulfate, 0.5% sodium deoxycholate, and 2% protease inhibitor at 4° C. Samples were centrifuged at 14,000 rpm for 30 mins at 4° C., and total proteins in the supernatant were separated. 10 μg of denatured proteins were loaded per lane, and separated by 10% SDS-PAGE gel. Proteins were then transferred to Immobilon-P Transfer Membranes (Millipore Co., Bed-ford, Mass.) by semidry transfer. Membranes were incubated with primary antibodies specific for Tyrosinase, tyrosinase-related protein-1 (TRP1), tyrosinase-related protein-2 (TRP2), and microphthalmia-associated transcription factor (MITF). The blots were subsequently washed and incubated with the appropriate secondary antibodies. Immunoreactive protein bands were visualized with enhanced chemiluminescence western blotting detection reagents and quantified using an ODYSSEY Fc Imaging system. The amounts of protein loaded were normalized against a control protein, β-actin.
A general note: In western blotting, separated proteins are transferred to a membrane and probed.

Molecules are shown by their SMILES.

One compound from patent US10973748B2, “Compositions and methods for lightening skin and reducing hyperpigmentation” (Versitech Limited, priority 2016, dated 2021) can be followed below.

For the compound `O=C1C[C@@H](c2ccc(O)cc2)Oc2cc(O)c(/C=C/c3ccccc3)c(O)c21` [6-CEPN, 6-C-(E-phenylethenyl)-naringenin], the cell survival rate entry with melan-a cells [1] is given as “no significant decrease”. The melanosome autophagy result with melan-a cells [2] is listed as “induced melanosome autophagy”. Besides, the “amount of melanin in human skin equivalents” value in data set [3] was “significantly inhibited the amount of melanin”. Moreover, in the data set on tyrosinase, the “protein level of tyrosinase” value is recorded as “significantly suppressed”.
